Measured values: PMC10337138 (Acta Neuropathologica Communications, 2023)

What was measured:
BRK/PTK6 = BRK/PTK6 (Homo sapiens, UniProt Q13882); assay: AssayQuant Sox-peptide kinase panel, […] compound, […] ATP; […] inhibition; format: biochemical
BLK = BLK (Homo sapiens, UniProt P51451); assay: as above; format: biochemical
BLK, sequence (P51451 2-505): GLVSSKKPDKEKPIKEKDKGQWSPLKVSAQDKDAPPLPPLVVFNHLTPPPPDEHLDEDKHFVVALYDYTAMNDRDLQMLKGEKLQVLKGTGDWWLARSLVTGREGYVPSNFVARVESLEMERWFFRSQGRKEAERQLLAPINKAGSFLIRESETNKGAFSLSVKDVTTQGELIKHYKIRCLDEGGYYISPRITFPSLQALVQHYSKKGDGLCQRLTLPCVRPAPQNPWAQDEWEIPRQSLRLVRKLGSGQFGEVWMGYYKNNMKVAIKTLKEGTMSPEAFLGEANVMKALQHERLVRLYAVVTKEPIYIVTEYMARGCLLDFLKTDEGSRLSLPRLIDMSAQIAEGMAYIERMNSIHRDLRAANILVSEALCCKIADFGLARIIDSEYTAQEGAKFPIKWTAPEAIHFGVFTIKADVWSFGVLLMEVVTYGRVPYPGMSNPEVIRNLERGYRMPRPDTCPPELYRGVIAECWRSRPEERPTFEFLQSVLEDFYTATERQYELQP

BRK/PTK6, sequence (Q13882 whole entry): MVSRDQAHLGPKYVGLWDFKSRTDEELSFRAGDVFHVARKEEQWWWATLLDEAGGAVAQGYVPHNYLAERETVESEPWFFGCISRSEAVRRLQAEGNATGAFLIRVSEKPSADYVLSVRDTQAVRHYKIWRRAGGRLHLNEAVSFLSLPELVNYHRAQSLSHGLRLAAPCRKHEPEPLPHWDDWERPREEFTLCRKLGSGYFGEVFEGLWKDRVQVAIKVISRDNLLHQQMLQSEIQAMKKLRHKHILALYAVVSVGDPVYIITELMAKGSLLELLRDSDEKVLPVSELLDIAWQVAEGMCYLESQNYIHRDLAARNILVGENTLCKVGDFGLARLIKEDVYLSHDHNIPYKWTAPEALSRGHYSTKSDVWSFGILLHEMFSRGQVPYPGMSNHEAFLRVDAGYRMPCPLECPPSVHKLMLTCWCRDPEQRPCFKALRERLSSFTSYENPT

% inhibition at 1 μM (BRK/PTK6): > 50
% inhibition at 1 μM (BLK): > 50
Substance: GB7208
